Test results reported in ChEMBL document CHEMBL1201862, “PubChem BioAssay data set” (2004).
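How tested: cells in 96-well plates exposed to compound for 48 hours at five concentrations. GI50 = concentration required for 50% inhibition of growth.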 Activity calls are given as the source filed them. No stated cut-off is given here; in the data, active = GI50 up to about 1.1 µM and inactive = higher.

Key:
Test in all cases: NCI tumour cell line growth inhibition, 48 h
IGROV-1 = test system: IGROV-1
NCI-H460 = test system: NCI-H460
DMS-114 = test system: DMS-114
MOLT-4 = test system: MOLT-4
SF-268 = test system: SF-268
NCI-H522 = test system: NCI-H522
SF-539 = test system: SF-539
SK-MEL-2 = test system: SK-MEL-2
SN12C = test system: SN12C
SR = test system: SR
COLO 205 = test system: COLO 205
UACC-62 = test system: UACC-62
SNB-75 = test system: SNB-75
HCT-116 = test system: HCT-116
HOP-92 = test system: HOP-92
RPMI-8226 = test system: RPMI-8226
K562 = test system: K562
Malme-3M = test system: Malme-3M
CCRF-CEM = test system: CCRF-CEM
CAKI-1 = test system: CAKI-1
A498 = test system: A498
OVCAR-4 = test system: OVCAR-4
HCC 2998 = test system: HCC 2998
M14 = test system: M14
HL-60 = test system: HL-60
DMS-273 = test system: DMS-273
XF498 = test system: XF498
LXFL 529 = test system: LXFL 529
SK-OV-3 = test system: SK-OV-3
NCI-H23 = test system: NCI-H23
NCI-H226 = test system: NCI-H226
SNB-78 = test system: SNB-78
M19-MEL = test system: M19-MEL
DLD-1 = test system: DLD-1
SK-MEL-28 = test system: SK-MEL-28
786-0 = test system: 786-0
HOP-62 = test system: HOP-62
UO-31 = test system: UO-31
TK-10 = test system: TK-10
HT-29 = test system: HT-29
SW-620 = test system: SW-620
KM12 = test system: KM12
OVCAR-3 = test system: OVCAR-3
OVCAR-5 = test system: OVCAR-5
SK-MEL-5 = test system: SK-MEL-5
OVCAR-8 = test system: OVCAR-8
U-251 = test system: U-251
RXF 393 = test system: RXF 393
HCT-15 = test system: HCT-15
KM-20L2 = test system: KM-20L2
ACHN = test system: ACHN
EKVX = test system: EKVX
LOX IMVI = test system: LOX IMVI
UACC-257 = test system: UACC-257
SF-295 = test system: SF-295
A549 = test system: A549
SNB-19 = test system: SNB-19
HOP-18 = test system: HOP-18
NCI/ADR-RES = test system: NCI/ADR-RES
MCF7 = test system: MCF7

Measured: GI50

Cc1[nH]c(=O)nc(N/N=C/c2ccc(O)cc2)c1C(=O)Nc1ccc(O)cc1
inactive: IGROV-1 > 100 µM | NCI-H460 > 100 µM | DMS-114 > 100 µM | MOLT-4 > 100 µM | SF-268 > 100 µM | NCI-H522 > 100 µM | SF-539 > 100 µM | SK-MEL-2 > 100 µM | SN12C > 100 µM | SR > 100 µM | COLO 205 > 100 µM | UACC-62 > 100 µM | SNB-75 > 100 µM | HCT-116 > 100 µM | HOP-92 > 100 µM | RPMI-8226 > 100 µM | K562 > 100 µM | Malme-3M > 100 µM | CCRF-CEM > 100 µM | CAKI-1 > 100 µM | A498 > 100 µM | OVCAR-4 > 100 µM | HCC 2998 > 100 µM | M14 > 100 µM | HL-60 > 100 µM | DMS-273 > 100 µM | XF498 > 100 µM | LXFL 529 > 100 µM | SK-OV-3 > 100 µM | NCI-H23 > 100 µM | NCI-H226 > 100 µM | SNB-78 72.8 µM | M19-MEL > 100 µM | DLD-1 > 100 µM | SK-MEL-28 > 100 µM | 786-0 > 100 µM | HOP-62 > 100 µM | UO-31 > 100 µM

Cc1ccc(Sc2cc([N+](=O)[O-])cc(Sc3ccc(C)cc3)c2Sc2ccc(C)cc2)cc1
> 100 µM: HCT-15
inactive: TK-10 > 100 µM | IGROV-1 > 100 µM | HT-29 > 100 µM | NCI-H460 > 100 µM | DMS-114 > 100 µM | MOLT-4 34.1 µM | SW-620 > 100 µM | KM12 > 100 µM | SF-268 > 100 µM | OVCAR-3 > 100 µM | SF-539 > 100 µM | OVCAR-5 > 100 µM | SK-MEL-2 > 100 µM | SN12C > 100 µM | SK-MEL-5 > 100 µM | COLO 205 > 100 µM | UACC-62 > 100 µM | OVCAR-8 74.6 µM | SNB-75 53.5 µM | HCT-116 > 100 µM | U-251 46.5 µM | RXF 393 36 µM | RPMI-8226 > 100 µM | K562 48.8 µM | Malme-3M > 100 µM | CCRF-CEM 27.2 µM | CAKI-1 > 100 µM | A498 > 100 µM | KM-20L2 > 100 µM | ACHN > 100 µM | EKVX > 100 µM | HCC 2998 > 100 µM | LOX IMVI > 100 µM | M14 > 100 µM | HL-60 > 100 µM | DMS-273 > 100 µM | UACC-257 > 100 µM | XF498 > 100 µM | LXFL 529 > 100 µM | SF-295 > 100 µM | A549 > 100 µM | NCI-H226 > 100 µM | SNB-78 > 100 µM | M19-MEL > 100 µM | DLD-1 > 100 µM | SNB-19 66.8 µM | 786-0 51.6 µM | HOP-62 > 100 µM | UO-31 > 100 µM

CCOC(=O)C1CCCCN1C(=O)OCc1ccccc1 (stereo not given)
> 100 µM: HCT-15
inactive: TK-10 > 100 µM | HT-29 > 100 µM | NCI-H460 > 100 µM | DMS-114 97.7 µM | MOLT-4 > 100 µM | SW-620 > 100 µM | KM12 > 100 µM | SF-268 > 100 µM | OVCAR-3 > 100 µM | NCI-H522 > 100 µM | SF-539 > 100 µM | OVCAR-5 > 100 µM | SK-MEL-2 > 100 µM | SN12C > 100 µM | SK-MEL-5 > 100 µM | SR > 100 µM | UACC-62 > 100 µM | OVCAR-8 > 100 µM | SNB-75 > 100 µM | HCT-116 > 100 µM | U-251 86.1 µM | RXF 393 > 100 µM | K562 > 100 µM | CCRF-CEM > 100 µM | CAKI-1 > 100 µM | A498 > 100 µM | ACHN > 100 µM | EKVX > 100 µM | OVCAR-4 > 100 µM | M14 > 100 µM | HL-60 41 µM | DMS-273 > 100 µM | UACC-257 > 100 µM | XF498 14.2 µM | LXFL 529 > 100 µM | SF-295 > 100 µM | SK-OV-3 > 100 µM | A549 > 100 µM | NCI-H23 78.3 µM | NCI-H226 27.3 µM | SNB-78 > 100 µM | M19-MEL > 100 µM | DLD-1 > 100 µM | SNB-19 > 100 µM | SK-MEL-28 > 100 µM | 786-0 > 100 µM | HOP-62 > 100 µM | UO-31 99.8 µM

COc1cc2c(cc1Oc1c(Oc3c(O)c(OC)cc4c3C(CC(C)C)N(C)CC4)c(OC)cc3c1C(CC(C)C)N(C)CC3)C(CC(C)C)N(C)CC2 (stereo not given)
active: HT-29 0.547 µM | NCI-H460 0.519 µM | DMS-114 0.838 µM | MOLT-4 1.03 µM | SW-620 0.879 µM | KM12 0.721 µM | NCI-H522 0.458 µM | SF-539 0.376 µM | SK-MEL-2 0.867 µM | SN12C 0.577 µM | SK-MEL-5 0.375 µM | COLO 205 0.351 µM | UACC-62 0.573 µM | OVCAR-8 0.618 µM | SNB-75 0.611 µM | HCT-116 0.643 µM | U-251 0.492 µM | RXF 393 0.495 µM | HOP-92 0.465 µM | K562 1.02 µM | Malme-3M 1.11 µM | CCRF-CEM 0.8 µM | CAKI-1 0.575 µM | A498 0.152 µM | KM-20L2 0.698 µM | EKVX 0.528 µM | HCC 2998 0.92 µM | LOX IMVI 0.931 µM | MCF7 0.632 µM | SF-295 0.904 µM | SK-OV-3 1.12 µM | A549 0.429 µM | NCI-H23 0.787 µM | NCI-H226 0.422 µM | M19-MEL 0.515 µM | SNB-19 0.582 µM | SK-MEL-28 0.897 µM | HOP-62 0.533 µM
1.81 µM: HCT-15
inactive: IGROV-1 3.02 µM | SF-268 1.51 µM | OVCAR-3 1.12 µM | HOP-18 1.67 µM | OVCAR-5 5.11 µM | NCI/ADR-RES 2.38 µM | RPMI-8226 2.34 µM | OVCAR-4 1.12 µM | HL-60 3.03 µM | DMS-273 1.18 µM | UACC-257 1.45 µM | SNB-78 1.13 µM | DLD-1 1.76 µM | UO-31 3.95 µM
